Assays:
hCA II = hCA II (Homo sapiens, UniProt P00918); test: stopped-flow CO2 hydrase assay
Text: (§3) An Applied Photophysics stopped-flow instrument was used for assaying the CA catalysed CO2 hydration activity, as reported earlier [17]. The inhibition constants were obtained by non-linear least-squares methods using PRISM 3 and the Cheng-Prusoff equation as reported earlier, and represent the mean from at least three different determinations. The four tested CA isofoms were recombinant ones obtained in-house as reported earlier [26, 27, 28, 29].

UO-31 = test: NCI one-dose SRB assay; format: cell-based; settings: Homo sapiens; UO-31 (Renal Cancer), 1.00E-5 Molar, one dose; read-out: Growth Percent
Procedure: (§1) First, all diamide-based benzenesulfonamides herein reported 5a–h were screened for their antitumor activity at one dose (10^−5 M) assay against a panel of sixty cancer cell lines through the National Cancer Institute (NCI) Developmental Therapeutic Program (www.dtp.nci.nih.gov), according to US-NCI protocol. The cell growth and cell viability were evaluated using the sulforhodamine B (SRB) colorimetric assay.
The obtained data were reported as mean-graph of the percentage growth of the different treated tumour cells (Supplementary Materials). Exploration of results for this assay confirmed that the examined diamide-based benzenesulfonamides 5a–h had non-significant activity towards most NCI cancer cell lines.
(§2) This assay was carried out according to the protocol of the Drug Evaluation Branch, NCI, Bethesda. The cell growth and cell viability were evaluated using the sulforhodamine B (SRB) colorimetric assay, as reported earlier.

KM12 = test: NCI one-dose SRB assay; format: cell-based; settings: Homo sapiens, KM12 (Colon Cancer), 1.00E-5 Molar, read-out: Growth Percent
Procedure: as §1, §2

SK-MEL-2 = test: NCI one-dose SRB assay; format: cell-based; settings: Homo sapiens, SK-MEL-2 (Melanoma), 1.00E-5 Molar, read-out: Growth Percent
Procedure: as §1, §2

UACC-62 = test: NCI one-dose SRB assay; format: cell-based; settings: Homo sapiens, UACC-62 (Melanoma), 1.00E-5 Molar, read-out: Growth Percent
Procedure: as §1, §2

M14 = test: NCI one-dose SRB assay; format: cell-based; settings: Homo sapiens, M14 (Melanoma), 1.00E-5 Molar, read-out: Growth Percent
Procedure: as §1, §2

HS 578T = test: NCI one-dose SRB assay; format: cell-based; settings: Homo sapiens, HS 578T (Breast Cancer), 1.00E-5 Molar, read-out: Growth Percent
Procedure: as §1, §2

A549/ATCC = test: NCI one-dose SRB assay; format: cell-based; settings: Homo sapiens, A549/ATCC (Non-Small Cell Lung Cancer), 1.00E-5 Molar, read-out: Growth Percent
Procedure: as §1, §2

PC-3 = test: NCI one-dose SRB assay; format: cell-based; settings: Homo sapiens, PC-3 (Prostate Cancer), 1.00E-5 Molar, read-out: Growth Percent
Procedure: as §1, §2

CCRF-CEM = test: NCI one-dose SRB assay; format: cell-based; settings: Homo sapiens, CCRF-CEM (Leukemia), 1.00E-5 Molar, read-out: Growth Percent
Procedure: as §1, §2

RPMI-8226 = test: NCI one-dose SRB assay; format: cell-based; settings: Homo sapiens, RPMI-8226 (Leukemia), 1.00E-5 Molar, read-out: Growth Percent
Procedure: as §1, §2

SF-295 = test: NCI one-dose SRB assay; format: cell-based; settings: Homo sapiens, SF-295 (CNS Cancer), 1.00E-5 Molar, read-out: Growth Percent
Procedure: as §1, §2

MDA-MB-231/ATCC = test: NCI one-dose SRB assay; format: cell-based; settings: Homo sapiens, MDA-MB-231/ATCC (Breast Cancer), 1.00E-5 Molar, read-out: Growth Percent
Procedure: as §1, §2

NCI-H460 = test: NCI one-dose SRB assay; format: cell-based; settings: Homo sapiens, NCI-H460 (Non-Small Cell Lung Cancer), 1.00E-5 Molar, read-out: Growth Percent
Procedure: as §1, §2

MOLT-4 = test: NCI one-dose SRB assay; format: cell-based; settings: Homo sapiens, MOLT-4 (Leukemia), 1.00E-5 Molar, read-out: Growth Percent
Procedure: as §1, §2

MDA-MB-468 = test: NCI one-dose SRB assay; format: cell-based; settings: Homo sapiens, MDA-MB-468 (Breast Cancer), 1.00E-5 Molar, read-out: Growth Percent
Procedure: as §1, §2

HCC-2998 = test: NCI one-dose SRB assay; format: cell-based; settings: Homo sapiens, HCC-2998 (Colon Cancer), 1.00E-5 Molar, read-out: Growth Percent
Procedure: as §1, §2

OVCAR-3 = test: NCI one-dose SRB assay; format: cell-based; settings: Homo sapiens, OVCAR-3 (Ovarian Cancer), 1.00E-5 Molar, read-out: Growth Percent
Procedure: as §1, §2

HT29 = test: NCI one-dose SRB assay; format: cell-based; settings: Homo sapiens, HT-29, HT29 (Colon Cancer), 1.00E-5 Molar, read-out: Growth Percent
Procedure: as §1, §2

SK-MEL-28 = test: NCI one-dose SRB assay; format: cell-based; settings: Homo sapiens, SK-MEL-28 (Melanoma), 1.00E-5 Molar, read-out: Growth Percent
Procedure: as §1, §2

SW-620 = test: NCI one-dose SRB assay; format: cell-based; settings: Homo sapiens, SW-620 (Colon Cancer), 1.00E-5 Molar, read-out: Growth Percent
Procedure: as §1, §2

TK-10 = test: NCI one-dose SRB assay; format: cell-based; settings: Homo sapiens, TK-10 (Renal Cancer), 1.00E-5 Molar, read-out: Growth Percent
Procedure: as §1, §2

ACHN = test: NCI one-dose SRB assay; format: cell-based; settings: Homo sapiens, ACHN (Renal Cancer), 1.00E-5 Molar, read-out: Growth Percent
Procedure: as §1, §2

LOX IMVI = test: NCI one-dose SRB assay; format: cell-based; settings: Homo sapiens, LOX IMVI (Melanoma), 1.00E-5 Molar, read-out: Growth Percent
Procedure: as §1, §2

MALME-3M = test: NCI one-dose SRB assay; format: cell-based; settings: Homo sapiens, MALME-3M (Melanoma), 1.00E-5 Molar, read-out: Growth Percent
Procedure: as §1, §2

U251 = test: NCI one-dose SRB assay; format: cell-based; settings: Homo sapiens, U-251, U251 (CNS Cancer), 1.00E-5 Molar, read-out: Growth Percent
Procedure: as §1, §2

SNB-19 = test: NCI one-dose SRB assay; format: cell-based; settings: Homo sapiens, SNB-19 (CNS Cancer), 1.00E-5 Molar, read-out: Growth Percent
Procedure: as §1, §2

HCT-116 = test: NCI one-dose SRB assay; format: cell-based; settings: Homo sapiens, HCT-116 (Colon Cancer), 1.00E-5 Molar, read-out: Growth Percent
Procedure: as §1, §2

T-47D = test: NCI one-dose SRB assay; format: cell-based; settings: Homo sapiens, T47D, T-47D (Breast Cancer), 1.00E-5 Molar, read-out: Growth Percent
Procedure: as §1, §2

hCA I = hCA I (Homo sapiens, UniProt P00915); test: stopped-flow CO2 hydrase assay
Chain of hCA I (P00915 whole entry): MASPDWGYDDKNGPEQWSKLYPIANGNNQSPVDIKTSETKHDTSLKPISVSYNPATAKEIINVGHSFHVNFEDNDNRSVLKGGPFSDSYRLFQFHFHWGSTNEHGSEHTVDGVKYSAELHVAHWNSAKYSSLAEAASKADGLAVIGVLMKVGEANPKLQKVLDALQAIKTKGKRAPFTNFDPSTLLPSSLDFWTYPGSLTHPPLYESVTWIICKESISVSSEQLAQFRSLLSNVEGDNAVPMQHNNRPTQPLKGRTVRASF
Text: as §3

`NS(=O)(=O)c1ccc(NC(=O)C(=Cc2ccc(Cl)cc2)NC(=O)c2ccccc2)cc1` [Compound 5a, N-(1-(4-Chlorophenyl)-3-oxo-3-((4-sulfamoylphenyl)amino)prop-1-en-2-yl)benzamide] gave a melting point of 255 to 258 °C, a Ki (hCA II) of 68.3 nM and an activity at 10 µM (UO-31) of 78.7%. It also gave an activity at 10 µM (KM12) of 108%, an activity at 10 µM (SK-MEL-2) of 102% and an activity at 10 µM (UACC-62) of 96.2%. For the same molecule, the activity at 10 µM (M14) was 102%, the activity at 10 µM (HS 578T) was 101% and the activity at 10 µM (A549/ATCC) was 101%. The activity at 10 µM (PC-3) was 105%, the activity at 10 µM (CCRF-CEM) was 107% and the activity at 10 µM (RPMI-8226) was 109%. For the same molecule, the activity at 10 µM (SF-295) was 104%, the activity at 10 µM (MDA-MB-231/ATCC) was 105% and the activity at 10 µM (NCI-H460) was 106%. It also gave an activity at 10 µM (MOLT-4) of 103%, an activity at 10 µM (MDA-MB-468) of 101% and an activity at 10 µM (HCC-2998) of 103%. It also gave an activity at 10 µM (OVCAR-3) of 104%, an activity at 10 µM (HT29) of 106% and an activity at 10 µM (SK-MEL-28) of 110%. It also gave an activity at 10 µM (SW-620) of 100%, an activity at 10 µM (TK-10) of 96.6% and an activity at 10 µM (ACHN) of 100%. For the same molecule, the activity at 10 µM (LOX IMVI) was 97%, the activity at 10 µM (MALME-3M) was 96.3% and the activity at 10 µM (U251) was 95.3%. It also gave an activity at 10 µM (SNB-19) of 103%, an activity at 10 µM (HCT-116) of 93.9% and an activity at 10 µM (T-47D) of 95.5%. It also gave a Ki (hCA I) of 3960 nM.

Work on `NS(=O)(=O)c1ccc(NC(=O)C(=Cc2ccc(Cl)cc2Cl)NC(=O)c2ccccc2)cc1` [Compound 5b, N-(1-(2,4-Dichlorophenyl)-3-oxo-3-((4-sulfamoylphenyl)amino)prop-1-en-2-yl)benzamide] yielded a melting point of 265 to 267 °C, a Ki (hCA II) of 224 nM and an activity at 10 µM (UO-31) of 75.8%. It also gave an activity at 10 µM (KM12) of 102%, an activity at 10 µM (SK-MEL-2) of 95.3% and an activity at 10 µM (UACC-62) of 75%. The activity at 10 µM (M14) was 102%, the activity at 10 µM (HS 578T) was 89.5% and the activity at 10 µM (A549/ATCC) was 105%. The activity at 10 µM (PC-3) was 89.4%, the activity at 10 µM (CCRF-CEM) was 105% and the activity at 10 µM (RPMI-8226) was 92.2%. For the same molecule, the activity at 10 µM (SF-295) was 104%, the activity at 10 µM (MDA-MB-231/ATCC) was 105% and the activity at 10 µM (NCI-H460) was 105%. For the same molecule, the activity at 10 µM (MOLT-4) was 92.3%, the activity at 10 µM (MDA-MB-468) was 110% and the activity at 10 µM (HCC-2998) was 103%. It also gave an activity at 10 µM (OVCAR-3) of 113%, an activity at 10 µM (HT29) of 103% and an activity at 10 µM (SK-MEL-28) of 110%. For the same molecule, the activity at 10 µM (SW-620) was 104%, the activity at 10 µM (TK-10) was 104% and the activity at 10 µM (ACHN) was 98.2%. It also gave an activity at 10 µM (LOX IMVI) of 96.2%, an activity at 10 µM (MALME-3M) of 93.2% and an activity at 10 µM (U251) of 97.1%. It also gave an activity at 10 µM (SNB-19) of 95.6%, an activity at 10 µM (HCT-116) of 97.3% and an activity at 10 µM (T-47D) of 87.5%. For the same molecule, the Ki (hCA I) was 5980 nM.

Work on `COc1ccc(C=C(NC(=O)c2ccccc2)C(=O)Nc2ccc(S(N)(=O)=O)cc2)cc1` [Compound 5e, N-(1-(4-Methoxyphenyl)-3-oxo-3-((4-sulfamoylphenyl)amino)prop-1-en-2-yl)benzamide] yielded a Ki (hCA II) of 128 nM, an activity at 10 µM (UO-31) of 86.4% and an activity at 10 µM (KM12) of 106%. The activity at 10 µM (SK-MEL-2) was 102%, the activity at 10 µM (UACC-62) was 92.7% and the activity at 10 µM (M14) was 107%. It also gave an activity at 10 µM (HS 578T) of 102%, an activity at 10 µM (A549/ATCC) of 103% and an activity at 10 µM (PC-3) of 98.9%. For the same molecule, the activity at 10 µM (CCRF-CEM) was 106%, the activity at 10 µM (RPMI-8226) was 107% and the activity at 10 µM (SF-295) was 112%. It also gave an activity at 10 µM (MDA-MB-231/ATCC) of 110%, an activity at 10 µM (NCI-H460) of 105% and an activity at 10 µM (MOLT-4) of 104%. The activity at 10 µM (MDA-MB-468) was 108%, the activity at 10 µM (HCC-2998) was 106% and the activity at 10 µM (OVCAR-3) was 111%. The activity at 10 µM (HT29) was 100%, the activity at 10 µM (SK-MEL-28) was 106% and the activity at 10 µM (SW-620) was 101%. The activity at 10 µM (TK-10) was 107%, the activity at 10 µM (ACHN) was 102% and the activity at 10 µM (LOX IMVI) was 99.1%. For the same molecule, the activity at 10 µM (MALME-3M) was 109%, the activity at 10 µM (U251) was 99.4% and the activity at 10 µM (SNB-19) was 100%. For the same molecule, the activity at 10 µM (HCT-116) was 105%, the activity at 10 µM (T-47D) was 101% and the Ki (hCA I) was 1010 nM.
